Earlier results as cited in US20190254579A1, “INTEGRATED DEVICES TO CONTINUOUSLY MEASURE BOUND AND UNBOUND ANALYTE FRACTIONS IN BIOFLUIDS” (Eccrine Systems, Inc., priority 2015, published 2019).
Converted amounts (≈) assume the structure as drawn. Like-named read-outs stand apart in the source and are kept apart here.

Legend:
[1] = water/octanol

Structure (SMILES)	logP [1]	Solubility in Water [µg/mL]	Solubility in Water (stated in words)
CCCCC/C=C\C/C=C\CCCCCCCC(=O)OC(CO)CO [2-Linoleoyl Glycerol]	5.6	–	–
CCCC/C=C\CCCCCCCC(=O)O [Myristoleic Acid]	5.1	–	–
CCCCCC[C@@H](O)C/C=C\CCCCCCCC(=O)O [Ricinoleic Acid]	5.7	3460 (≈ 11.6 mM)	–
CC(C)CCCC(C)CCCC(C)CCCC(C)CC(=O)O (stereo not shown) [Phytanic Acid]	8.3	–	–
CCCCC/C=C\C/C=C\C/C=C\C/C=C\CCCC(=O)O [Arachidonic Acid]	7	–	Negligible
CCCCCCCC/C=C\CCCCCCCC(=O)O [Oleic Acid]	7.64	–	–
CCCCCC/C=C\CCCCCCCC(=O)O [Palmitoleic Acid]	6.4	–	Low
